Reference: the Kinase Knowledgebase extract (Sharma et al. 2016)

Target: CDK2 (human) (UniProt P24941)
Assay: Enzyme Assay

Row | Ki | Structure (SMILES)
1 | < 50 nM | CCNCc1cncc(-c2ccc3[nH]nc(-c4ncc(C(=O)NCC)[nH]4)c3c2)c1C
2 | < 50 nM | CCNCc1cncc(-c2ccc3[nH]nc(-c4ncc(C(=O)N5CCN(c6ccc(F)cc6F)CC5)[nH]4)c3c2)c1C
3 | < 50 nM | CCNCc1cncc(-c2ccc3[nH]nc(-c4nc(-c5ccccc5)c(C)[nH]4)c3c2)c1C
4 | < 50 nM | CCNCc1cncc(-c2ccc3[nH]nc(-c4ncc(C(=O)N5CCN(c6ccccc6)CC5)[nH]4)c3c2)c1C
5 | < 50 nM | CCNCc1cncc(-c2ccc3[nH]nc(-c4ncc(C(=O)NCc5ccccn5)[nH]4)c3c2)c1C
6 | < 50 nM | CCNCc1cncc(-c2ccc3[nH]nc(-c4ncc(C(=O)NC5CCCC5)[nH]4)c3c2)c1C
7 | < 50 nM | CCNCc1cncc(-c2ccc3[nH]nc(-c4ncc(C(=O)N5CCCC5)[nH]4)c3c2)c1C
8 | < 50 nM | CCNCc1cncc(-c2ccc3[nH]nc(-c4nc(CC(C)C)c(C)[nH]4)c3c2)c1C
9 | < 50 nM | CCNCc1cncc(-c2ccc3[nH]nc(-c4nc5c([nH]4)CCCC5)c3c2)c1CC
10 | < 50 nM | CCNCc1cncc(-c2ccc3[nH]nc(-c4ncc(C(=O)N5CCC(Cc6ncccn6)CC5)[nH]4)c3c2)c1C
11 | < 50 nM | CCNCc1cncc(-c2ccc3[nH]nc(-c4ncc(C(=O)N5CCC6CCCCC6C5)[nH]4)c3c2)c1C (stereo not drawn)
12 | < 50 nM | c1ncc(-c2n[nH]c3ccc(-c4cncc5[nH]ccc45)cc23)[nH]1
13 | < 50 nM | C[S+](C)[O-].Cc1c(N)cncc1-c1ccc2[nH]nc(-c3nc(-c4ccccc4)c[nH]3)c2c1
14 | < 50 nM | Cc1c(N)cncc1-c1ccc2[nH]nc(-c3nc4c([nH]3)CCCC4)c2c1
15 | < 50 nM | CCNCc1cncc(-c2ccc3[nH]nc(-c4ncc(C(=O)N[C@@H]5CCc6ccccc65)[nH]4)c3c2)c1C
16 | < 50 nM | CCNCc1cncc(-c2ccc3[nH]nc(-c4ncc(C(=O)N(C)C5CCN(Cc6ccccc6)C5)[nH]4)c3c2)c1C (stereo not drawn)
17 | < 50 nM | CCNCc1cncc(-c2ccc3[nH]nc(-c4ncc(C(=O)N5Cc6ccccc6C5)[nH]4)c3c2)c1C
18 | < 50 nM | CCNCc1cncc(-c2ccc3[nH]nc(-c4nc(-c5ccc(OC)cc5)c[nH]4)c3c2)c1C
19 | < 50 nM | CCNCc1cncc(-c2ccc3[nH]nc(-c4nc(CC)c(CC)[nH]4)c3c2)c1C
20 | < 50 nM | CCNCc1cncc(-c2ccc3[nH]nc(-c4nc(-c5ccc(F)cc5)c[nH]4)c3c2)c1C
21 | < 50 nM | CCNCc1cncc(-c2ccc3[nH]nc(-c4ncc(C(=O)N5CCN(C)CC5)[nH]4)c3c2)c1C
22 | < 50 nM | CCNCc1cncc(-c2ccc3[nH]nc(-c4ncc[nH]4)c3c2)c1CC

Row | Ki | Structure (SMILES)
23 | < 50 nM | CCCCCC.CCNCc1cncc(-c2ccc3[nH]nc(-c4nc(C)c(C)[nH]4)c3c2)c1C
24 | < 50 nM | CCNCc1cncc(-c2ccc3[nH]nc(-c4nc(-c5ccccc5)c(C(=O)NCc5ccccc5)[nH]4)c3c2)c1C
25 | < 50 nM | CNCc1cncc(-c2ccc3[nH]nc(-c4ncc[nH]4)c3c2)c1C
26 | < 50 nM | CCNCc1cncc(-c2ccc3[nH]nc(-c4nc(C(=O)NC5CCCCC5)c[nH]4)c3c2)c1C
27 | < 50 nM | CCNCc1cncc(-c2ccc3[nH]nc(-c4ncc(C(=O)NC5C6CC7CC(C6)CC5C7)[nH]4)c3c2)c1C (stereo not drawn)
28 | < 50 nM | CCNCc1cncc(-c2ccc3[nH]nc(-c4ncc(C(=O)N5CCC(Oc6ccccc6)CC5)[nH]4)c3c2)c1C
29 | < 50 nM | C1CCCCC1.COCc1cncc(-c2ccc3[nH]nc(-c4nc5c([nH]4)CCCC5)c3c2)c1C
30 | < 50 nM | CCNCc1cncc(-c2ccc3[nH]nc(-c4ncc(C(=O)N(CC)CC)[nH]4)c3c2)c1C
31 | < 50 nM | CCNCc1cncc(-c2ccc3[nH]nc(-c4cc(C)n[nH]4)c3c2)c1C
32 | < 50 nM | CCNCc1cncc(-c2ccc3[nH]nc(-c4nc(-c5ccccc5)c[nH]4)c3c2)c1C
33 | < 50 nM | CCNCc1cncc(-c2ccc3[nH]nc(-c4ncc(C(=O)N(CCN(C)C)Cc5ccccc5)[nH]4)c3c2)c1C
34 | < 50 nM | CCNCc1cncc(-c2ccc3[nH]nc(-c4ncc(C(=O)NC(C)C)[nH]4)c3c2)c1C
35 | < 50 nM | Cc1c(CNC(C)C)cncc1-c1ccc2[nH]nc(-c3ncc[nH]3)c2c1
36 | < 50 nM | CCNCc1cncc(-c2ccc3[nH]nc(-c4ncc[nH]4)c3c2)c1C
37 | < 50 nM | CCNCc1cncc(-c2ccc3[nH]nc(-c4cnc[nH]4)c3c2)c1C
38 | < 50 nM | CCNCc1cncc(-c2ccc3[nH]nc(-c4nc(-c5cccc(OC)c5)c[nH]4)c3c2)c1C
39 | < 50 nM | CCCc1nc(-c2n[nH]c3ccc(-c4cncc(CNCC)c4C)cc23)[nH]c1C
40 | < 50 nM | CC(C)(C)O.Cc1c(N)cncc1-c1ccc2[nH]nc(-c3nc(-c4ccc(F)cc4)c[nH]3)c2c1
41 | < 50 nM | CCNCc1cncc(-c2ccc3[nH]nc(-c4ncc(C(=O)N[C@H]5CCc6ccccc65)[nH]4)c3c2)c1C
42 | < 50 nM | CCNCc1cncc(-c2ccc3[nH]nc(-c4ncc(C(=O)NCCN(C)C)[nH]4)c3c2)c1C
43 | < 50 nM | CCNCc1cncc(-c2ccc3[nH]nc(-c4ncc(C(=O)N5CCCCCC5)[nH]4)c3c2)c1C
44 | < 50 nM | CCNCc1cncc(-c2ccc3[nH]nc(-c4nc(-c5cc(Cl)cc(Cl)c5)c(C)[nH]4)c3c2)c1C

Row | Ki | Structure (SMILES)
45 | < 50 nM | CCNCc1cncc(-c2ccc3[nH]nc(-c4nc5c([nH]4)CCCC5)c3c2)c1C
46 | < 50 nM | CCNCc1cncc(-c2ccc3[nH]nc(-c4ncc(C(=O)NCCC5=CCCCC5)[nH]4)c3c2)c1C
47 | < 50 nM | CCCCCC.CCNCc1cncc(-c2ccc3[nH]nc(-c4nc(CC)c(C)[nH]4)c3c2)c1C
48 | < 50 nM | CCNCc1cncc(-c2ccc3[nH]nc(-c4nc(-c5ccc(OC)c(OC)c5)c[nH]4)c3c2)c1C
49 | < 50 nM | CCNCc1cncc(-c2ccc3[nH]nc(-c4nc(-c5ccc(C(F)(F)F)cc5)c(C)[nH]4)c3c2)c1C
50 | < 50 nM | CCNCc1cncc(-c2ccc3[nH]nc(-c4nc(-c5ccc(Cl)cc5)c(C)[nH]4)c3c2)c1C
51 | < 50 nM | CCNCc1cncc(-c2ccc3[nH]nc(-c4ncc(C(=O)N5CCN(Cc6ccccn6)CC5)[nH]4)c3c2)c1C
52 | < 50 nM | CCNCc1cncc(-c2ccc3[nH]nc(-c4ncc(C(=O)N5CCN(CCOC)CC5)[nH]4)c3c2)c1C
53 | < 50 nM | CCNCc1cncc(-c2ccc3[nH]nc(-c4ncc(C(=O)NCCOC)[nH]4)c3c2)c1C
54 | < 50 nM | CCNCc1cncc(-c2ccc3[nH]nc(-c4nc(C(=O)NCc5cccnc5)c[nH]4)c3c2)c1C
55 | < 50 nM | c1c[nH]c(-c2n[nH]c3ccc(-c4cncc5[nH]ccc45)cc23)n1
56 | < 50 nM | CCNCc1cncc(-c2ccc3[nH]nc(-c4nc(C)c[nH]4)c3c2)c1C
57 | < 50 nM | CNCc1cncc(-c2ccc3[nH]nc(-c4nc(C)c[nH]4)c3c2)c1C
58 | < 50 nM | CCNCc1cncc(-c2ccc3[nH]nc(-c4ncc(C(=O)N5CC=C(c6ccccc6)CC5)[nH]4)c3c2)c1C
59 | < 50 nM | CCc1nc(-c2n[nH]c3ccc(-c4cncc(N)c4C)cc23)[nH]c1CC
60 | < 50 nM | CCNCc1cncc(-c2ccc3[nH]nc(-c4ncc(C(=O)N5C[C@@H](C)O[C@@H](C)C5)[nH]4)c3c2)c1C
61 | < 50 nM | CCNCc1cncc(-c2ccc3[nH]nc(-c4ncc(C(=O)N5CCOCC5)[nH]4)c3c2)c1C
62 | < 50 nM | CCNCc1cncc(-c2ccc3[nH]nc(-c4ncc(C(=O)N5CCCC(Cc6ncccn6)CC5)[nH]4)c3c2)c1C (stereo not drawn)
63 | < 50 nM | CCNCc1cncc(-c2ccc3[nH]nc(-c4ncc(C(=O)N5CCCCC5)[nH]4)c3c2)c1C
64 | < 50 nM | CCNCc1cncc(-c2ccc3[nH]nc(-c4nc(-c5cccc(C(F)(F)F)c5)c(C)[nH]4)c3c2)c1C

Row | Structure (SMILES) | Ki
65 | CCNCc1cncc(-c2ccc3[nH]nc(-c4nc(-c5cccc(F)c5)c[nH]4)c3c2)c1C | < 50 nM
66 | CCNCc1cncc(-c2ccc3[nH]nc(-c4ncc(C(=O)N5CCN(Cc6ccccc6)CC5)[nH]4)c3c2)c1C | < 50 nM
67 | Cc1c(N)cncc1-c1ccc2[nH]nc(-c3nc(-c4cccc(F)c4)c[nH]3)c2c1 | < 50 nM
68 | CCNCc1cncc(-c2ccc3[nH]nc(-c4ncc(C(=O)N[C@H]5CCCCNC5=O)[nH]4)c3c2)c1C | < 50 nM
